From US20240109865A1, “INDAZOLE COMPOUNDS AS KINASE INHIBITORS” (TYRA BIOSCIENCES, INC., priority 2020, published 2024)
Like-named read-outs stand apart in the source and are kept apart here.

What was measured:
[1] = test system: KG-1 cells (FGFR1-fusion); assay: KG-1 cancer cell line cell viability assay (CellTiter-Glo 2.0); format: cell-based; conditions: Homo sapiens, 72 hours, Cell Titer Glo 2.0
Text: (§1) Experimental Purpose: To detect the change of intracellular ATP by Cell Titer-Glo® and to evaluate the inhibitory effect of the compounds on cancer cell lines by determining the in vitro IC50 value of the compounds.
(§2) Cell Titer-Glo® 2.0 Luminescent cell viability assay reagent was purchased from Promega (Madison, WI). RT112/84 and KG-1 cell lines were purchased from American Type Culture Collection (Manassas, VA). UM-UC-14 cell line was purchased from Sigma (St. Louis, MO). RT112/84, UM-UC-14, and KG-1 cells were cultured in RPMI1640 media supplemented with 10% fetal bovine serum. Cultures were maintained at 37° C. in a humidified atmosphere of 5% C02 and 95% air.
(§3) Cell Viability Assay Procedure: Cells were plated in 96-well clear bottom/white plates (Corning #3903) at 10,000 cells/well in 100 μl of media, incubated overnight. The next day, test compound DMSO stock solutions were made at 10 mM and 2 μM final concentration. Compounds were then added to cells in a 9-dose, 10-fold dilution series starting at 30 μM with an HP 300e Digital Dispenser (each dose was applied in triplicate). DMSO was backfilled to each well up to 301 nL total volume of test compound+DMSO, and a total of 301 nL DMSO was added to a control/no test compound well in triplicate. The cells in cell culture plates were incubated with the compounds at 37° C. and 5% C02 for 72 hours. Then 50 μl of Cell Titer Glo 2.0 reagent was added to each well of the cell culture plates. The contents were covered from light and mixed on an orbital shaker at room temperature for 10 min. Luminescence was recorded by a Synergy H1 Microplate Reader (Biotek, Winooski, VT). Cells were assessed as a percentage of DMSO only treated control cells. Curves were plotted and IC50 values were calculated using the GraphPad Prism 8 program based on a sigmoidal dose-response equation (4 parameter).

[2] = target: FGFR3-BAIAP2L1 Ba/F3 cells (Homo sapiens, UniProt P22607); assay: Ba/F3 cell viability assay (CellTiter-Glo 2.0), FGFR3-BAIAP2L1 Ba/F3; format: cell-based; conditions: for Ba/F3 FGFR1/FGFR3 Selectivity: FGFR3 > FGFR1 selectivity ratio in Ba/F3 FGFR fusion cell based assays; for IC50: read-out: Ba/F3 Cells FGFR3 (IC50 nM), FGFR3-BAIAP2L1 Ba/F3 cells, 48 hours, Cell Titer Glo 2.0
Method in brief: (§4)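 Viability read as ATP luminescence (CellTiter-Glo 2.0) after 48 h compound exposure, normalized to DMSO-treated cells and fitted with a 4-parameter curve for IC50. Cells: Ba/F3 dependent on FGFR1-BCR or FGFR3-BAIAP2L1 fusion kinase; top dose 30 μM, 10-fold steps, 9 doses in triplicate.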

[3] = test system: RT112/84 cells (FGFR3-fusion); assay: RT112/84 cancer cell line cell viability assay (CellTiter-Glo 2.0); format: cell-based; conditions: Homo sapiens, 72 hours, Cell Titer Glo 2.0
Text: as §1, §2, §3

FGFR3 (V555M) = FGFR3 (V555M) (Homo sapiens (Human), UniProt P22607, V555M); assay: Kinase assay, binding constants (Kd), kinase-tagged T7 phage, qPCR; conditions: V555M mutant
Method in brief: (§5)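 Kinase-tagged T7 phage (grown in BL21-derived E. coli) competed with test compound for immobilized biotinylated ligand on streptavidin beads. Kds came from an 11-point 3-fold dilution series at 0.9% final DMSO. Bound kinase was eluted with non-biotinylated ligand and quantified by qPCR, with Hill slope fixed at −1.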

FGFR4 = FGFR4 (Homo sapiens (Human), UniProt P22455); assay: as above
Method in brief: as §5

FGFR2 = FGFR2 (Homo sapiens (Human), UniProt P21802); assay: as above
Method in brief: as §5

FGFR3 = FGFR3 (Homo sapiens (Human), UniProt P22607); assay: as above
Method in brief: as §5

FGFR1 = FGFR1 (Homo sapiens (Human), UniProt P11362); assay: as above
Method in brief: as §5

FGFR1-BCR Ba/F3 cells = FGFR1-BCR Ba/F3 cells (Homo sapiens, UniProt P11362); assay: Ba/F3 cell viability assay (CellTiter-Glo 2.0), FGFR1-BCR Ba/F3; format: cell-based; conditions: read-out: Ba/F3 Cells FGFR1 (IC50 nM), 48 hours, Cell Titer Glo 2.0
Method in brief: as §4

Chain of FGFR3 (V555M) (P22607 23-806 V555M): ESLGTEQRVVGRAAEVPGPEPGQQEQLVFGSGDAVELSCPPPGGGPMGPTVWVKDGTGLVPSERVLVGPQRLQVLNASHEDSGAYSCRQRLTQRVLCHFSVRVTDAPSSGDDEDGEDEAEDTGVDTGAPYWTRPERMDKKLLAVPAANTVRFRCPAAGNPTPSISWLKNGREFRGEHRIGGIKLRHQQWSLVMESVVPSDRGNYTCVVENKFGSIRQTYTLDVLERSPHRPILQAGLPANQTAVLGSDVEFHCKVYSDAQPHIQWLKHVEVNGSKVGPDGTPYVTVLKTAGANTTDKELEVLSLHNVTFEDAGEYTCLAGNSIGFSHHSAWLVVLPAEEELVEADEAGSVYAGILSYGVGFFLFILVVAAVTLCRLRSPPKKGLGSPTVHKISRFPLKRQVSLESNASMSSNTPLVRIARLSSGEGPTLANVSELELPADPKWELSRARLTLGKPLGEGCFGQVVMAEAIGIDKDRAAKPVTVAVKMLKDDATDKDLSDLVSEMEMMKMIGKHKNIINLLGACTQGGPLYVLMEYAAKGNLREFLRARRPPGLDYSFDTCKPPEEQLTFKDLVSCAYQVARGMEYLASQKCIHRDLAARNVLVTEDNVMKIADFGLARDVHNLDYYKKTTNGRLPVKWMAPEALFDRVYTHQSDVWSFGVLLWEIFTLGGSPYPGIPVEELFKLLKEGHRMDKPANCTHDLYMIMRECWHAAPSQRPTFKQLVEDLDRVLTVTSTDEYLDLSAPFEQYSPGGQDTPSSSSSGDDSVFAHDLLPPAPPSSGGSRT
Chain of FGFR3 (P22607 23-806): as the sequence (P22607 23-806 V555M) above, with M533V counted along it
Chain of FGFR3-BAIAP2L1 Ba/F3 cells (P22607 23-806 limits assumed, change not shown): as the sequence (P22607 23-806 V555M) above, with M533V counted along it
Chain of FGFR1 (P11362 22-822): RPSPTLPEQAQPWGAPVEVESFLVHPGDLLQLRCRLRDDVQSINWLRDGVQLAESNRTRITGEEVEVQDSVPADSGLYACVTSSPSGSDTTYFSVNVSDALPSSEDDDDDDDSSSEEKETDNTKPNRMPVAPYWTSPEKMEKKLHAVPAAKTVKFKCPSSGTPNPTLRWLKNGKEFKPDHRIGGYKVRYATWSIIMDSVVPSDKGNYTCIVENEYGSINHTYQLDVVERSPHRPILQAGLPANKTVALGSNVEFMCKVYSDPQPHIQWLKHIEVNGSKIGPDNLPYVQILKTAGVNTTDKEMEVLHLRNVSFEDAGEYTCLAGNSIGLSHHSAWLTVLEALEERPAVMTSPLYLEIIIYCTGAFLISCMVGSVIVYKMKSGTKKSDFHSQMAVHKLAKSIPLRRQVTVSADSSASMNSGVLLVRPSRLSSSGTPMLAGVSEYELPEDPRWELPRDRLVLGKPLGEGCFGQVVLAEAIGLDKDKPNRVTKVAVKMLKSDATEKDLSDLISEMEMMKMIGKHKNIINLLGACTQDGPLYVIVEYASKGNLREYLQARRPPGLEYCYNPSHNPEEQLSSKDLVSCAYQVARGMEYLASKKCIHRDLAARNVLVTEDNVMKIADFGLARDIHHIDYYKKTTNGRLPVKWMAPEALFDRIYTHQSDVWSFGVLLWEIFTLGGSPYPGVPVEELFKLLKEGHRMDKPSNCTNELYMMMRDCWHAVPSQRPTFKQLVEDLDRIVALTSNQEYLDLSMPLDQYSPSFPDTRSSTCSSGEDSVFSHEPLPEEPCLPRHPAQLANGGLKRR
Chain of FGFR1-BCR Ba/F3 cells (P11362 22-822 limits assumed, change not shown): as the sequence (P11362 22-822) above
Chain of FGFR2 (P21802 22-821): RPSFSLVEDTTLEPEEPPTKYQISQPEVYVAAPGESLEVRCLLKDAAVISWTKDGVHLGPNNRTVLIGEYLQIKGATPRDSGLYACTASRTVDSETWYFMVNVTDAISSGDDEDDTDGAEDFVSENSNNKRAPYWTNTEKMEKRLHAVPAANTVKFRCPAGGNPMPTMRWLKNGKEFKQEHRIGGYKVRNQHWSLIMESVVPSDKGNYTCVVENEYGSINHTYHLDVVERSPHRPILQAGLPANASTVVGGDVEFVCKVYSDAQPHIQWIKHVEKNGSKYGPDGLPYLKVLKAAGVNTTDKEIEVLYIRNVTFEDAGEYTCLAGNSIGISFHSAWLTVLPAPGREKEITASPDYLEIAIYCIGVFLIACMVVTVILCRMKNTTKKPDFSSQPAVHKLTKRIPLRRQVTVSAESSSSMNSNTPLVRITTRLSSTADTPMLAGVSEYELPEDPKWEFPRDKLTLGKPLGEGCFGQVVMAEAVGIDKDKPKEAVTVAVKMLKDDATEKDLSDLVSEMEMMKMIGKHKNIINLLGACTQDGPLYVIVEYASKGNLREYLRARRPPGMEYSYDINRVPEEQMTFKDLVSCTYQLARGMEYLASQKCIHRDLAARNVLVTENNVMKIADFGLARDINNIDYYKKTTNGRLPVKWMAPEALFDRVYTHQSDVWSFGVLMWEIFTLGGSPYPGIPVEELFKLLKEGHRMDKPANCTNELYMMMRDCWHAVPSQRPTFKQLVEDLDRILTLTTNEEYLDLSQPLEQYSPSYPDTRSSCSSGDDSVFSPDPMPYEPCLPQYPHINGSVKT
Chain of FGFR4 (P22455 22-802): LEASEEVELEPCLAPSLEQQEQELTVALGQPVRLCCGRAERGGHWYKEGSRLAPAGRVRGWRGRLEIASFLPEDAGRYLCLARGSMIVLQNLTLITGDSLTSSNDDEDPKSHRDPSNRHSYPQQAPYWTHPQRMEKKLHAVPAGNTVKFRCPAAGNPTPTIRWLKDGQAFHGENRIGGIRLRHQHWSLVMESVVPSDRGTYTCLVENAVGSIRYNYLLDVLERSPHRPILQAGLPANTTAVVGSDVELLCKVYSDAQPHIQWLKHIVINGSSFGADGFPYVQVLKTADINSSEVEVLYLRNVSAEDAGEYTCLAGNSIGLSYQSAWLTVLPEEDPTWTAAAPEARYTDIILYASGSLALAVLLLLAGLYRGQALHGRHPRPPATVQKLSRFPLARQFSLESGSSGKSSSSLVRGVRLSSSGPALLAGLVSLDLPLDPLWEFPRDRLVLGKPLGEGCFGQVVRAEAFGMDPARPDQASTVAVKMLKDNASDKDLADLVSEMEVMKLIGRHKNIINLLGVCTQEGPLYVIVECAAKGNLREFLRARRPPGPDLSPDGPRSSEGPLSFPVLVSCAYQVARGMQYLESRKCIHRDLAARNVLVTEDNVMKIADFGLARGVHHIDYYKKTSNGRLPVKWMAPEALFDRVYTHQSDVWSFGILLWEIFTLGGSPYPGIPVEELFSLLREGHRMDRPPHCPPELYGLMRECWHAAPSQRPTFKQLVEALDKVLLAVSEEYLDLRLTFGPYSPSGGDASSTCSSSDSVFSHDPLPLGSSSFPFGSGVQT

| Compound | IC50 [1] | Ba/F3 FGFR1/FGFR3 Selectivity [2] | IC50 [2] | IC50 [3] | Kd (FGFR3 (V555M)) | Kd (FGFR4) | Kd (FGFR2) | Kd (FGFR3) | Kd (FGFR1) | IC50 (FGFR1-BCR Ba/F3 cells) | IC50 ([2]; given as a number) |
| --- | --- | --- | --- | --- | --- | --- | --- | --- | --- | --- | --- |
| C[C@@H](Oc1ccc2[nH]nc(-c3ccc(N4CCC5(CCC(=O)N5)CC4)nc3)c2c1)c1c(Cl)cncc1Cl [Example 29, 8-[5-[5-[(1R)-1-(3,5-dichloro-4-pyridyl)ethoxy]-1H-indazol-3-yl]-2-pyridyl]-1,8-diazaspiro[4.5]decan-2-one] | 20 to 100 nM | 19 | 1 to 20 nM | 1 to 20 nM | 1 to 20 nM | 1 to 20 nM | 1 to 20 nM | 1 to 20 nM | 1 to 20 nM | 100 to 300 nM | – |
| C[C@@H](Oc1ccc2[nH]nc(-c3ccc(N4CCNC(=O)CC4)nc3)c2c1)c1c(Cl)cncc1Cl [Example 30, 1-[5-[5-[(1R)-1-(3,5-dichloro-4-pyridyl)ethoxy]-1H-indazol-3-yl]-2-pyridyl]-1,4-diazepan-5-one] | 20 to 100 nM | 18 | 1 to 20 nM | 1 to 20 nM | 1 to 20 nM | 1 to 20 nM | 1 to 20 nM | 1 to 20 nM | 1 to 20 nM | 100 to 300 nM | – |
| CC(C)N1CC2(CN(c3ccc(-c4n[nH]c5ccc(O[C@H](C)c6c(Cl)cncc6Cl)cc45)cn3)C2)C1 [Example 31, 5-[(1R)-1-(3,5-dichloro-4-pyridyl)ethoxy]-3-[6-(2-isopropyl-2,6-diazaspiro[3.3]heptan-6-yl)-3-pyridyl]-1H-indazole] | 20 to 100 nM | – | – | 1 to 20 nM | 1 to 20 nM | 1 to 20 nM | 1 to 20 nM | 1 to 20 nM | 1 to 20 nM | – | – |
| C[C@@H](Oc1ccc2[nH]nc(-c3cnc(N4CCC5(CCC(=O)N5)CC4)c(F)c3)c2c1)c1c(Cl)cncc1Cl [Example 42, 8-[5-[5-[(1R)-1-(3,5-dichloro-4-pyridyl)ethoxy]-1H-indazol-3-yl]-3-fluoro-2-pyridyl]-1,8-diazaspiro[4.5]decan-2-one] | 20 to 100 nM | 17 | 1 to 20 nM | 1 to 20 nM | 1 to 20 nM | 1 to 20 nM | 20 to 100 nM | 1 to 20 nM | 1 to 20 nM | 100 to 300 nM | – |
| C[C@@H](Oc1ccc2[nH]nc(-c3cnc(N4CCC5(CC4)CC(=O)NC5=O)nc3)c2c1)c1c(Cl)cncc1Cl [Example 50, 8-[5-[5-[(1R)-1-(3,5-dichloro-4-pyridyl)ethoxy]-1H-indazol-3-yl]pyrimidin-2-yl]-2,8-diazaspiro-[4,5]decane-1,3-dione] | 100 to 300 nM | 16 | 1 to 20 nM | 20 to 100 nM | 1 to 20 nM | 1 to 20 nM | 20 to 100 nM | 1 to 20 nM | 20 to 100 nM | 100 to 300 nM | – |
| C[C@@H](Oc1ccc2[nH]nc(-c3cnn(C4CCN(C)CC4)c3)c2c1)c1c(Cl)cncc1Cl [Example 65, 5-[(1R)-1-(3,5-dichloro-4-pyridyl)ethoxy]-3-[1-(1-methyl-4-piperidyl)pyrazol-4-yl]-1H-indazole] | 20 to 100 nM | – | 1 to 20 nM | 1 to 20 nM | 1 to 20 nM | 1 to 20 nM | 1 to 20 nM | 1 to 20 nM | 1 to 20 nM | 20 to 100 nM | – |
| C[C@@H](Oc1ccc2[nH]nc(-c3cnc(N4CCC5(CC4)CCS(=O)(=O)C5)c(F)c3)c2c1)c1c(Cl)cncc1Cl [Example 77, 8-[5-[5-[(1R)-1-(3,5-dichloro-4-pyridyl)ethoxy]-1H-indazol-3-yl]-3-fluoro-2-pyridyl]-2λ^6-thia-8-azaspiro[4.5]decane 2,2-dioxide] | 100 to 300 nM | 14 | 1 to 20 nM | 1 to 20 nM | 1 to 20 nM | 1 to 20 nM | 20 to 100 nM | 1 to 20 nM | 1 to 20 nM | 100 to 300 nM | – |
| C[C@@H](Oc1ccc2[nH]nc(-c3cnn(C4CCN(C5COC5)CC4)c3)c2c1)c1c(Cl)cncc1Cl [Example 87, 5-[(1R)-1-(3,5-dichloro-4-pyridyl)ethoxy]-3-[1-[1-(oxetan-3-yl)-4-piperidyl]pyrazol-4-yl]-1H-indazole] | 20 to 100 nM | 17 | 1 to 20 nM | 1 to 20 nM | 1 to 20 nM | 20 to 100 nM | 1 to 20 nM | 1 to 20 nM | 1 to 20 nM | 20 to 100 nM | – |
| C[C@@H](Oc1ccc2[nH]nc(-c3cnn([C@H]4CCNC4)c3)c2c1)c1c(Cl)cncc1Cl [Example 88, 5-[(1R)-1-(3,5-dichloro-4-pyridyl)ethoxy]-3-[1-[(3S)-pyrrolidin-3-yl]pyrazol-4-yl]-1H-indazole] | 100 to 300 nM | 20 | 1 to 20 nM | 20 to 100 nM | 1 to 20 nM | 20 to 100 nM | 1 to 20 nM | 1 to 20 nM | 1 to 20 nM | 100 to 300 nM | – |
| Cc1ncc(Cl)c([C@@H](C)Oc2ccc3[nH]nc(-c4cnn(C5CCN(C(C)C)CC5)c4)c3c2)c1Cl [Example 93, 5-[(1R)-1-(3,5-dichloro-2-methyl-4-pyridyl)ethoxy]-3-[1-(1-isopropyl-4-piperidyl)pyrazol-4-yl]-1H-indazole] | 100 to 300 nM | 11 | 20 to 100 nM | 1 to 20 nM | 1 to 20 nM | 20 to 100 nM | 1 to 20 nM | 1 to 20 nM | 1 to 20 nM | 100 to 300 nM | – |
| Cc1ncc(Cl)c([C@@H](C)Oc2ccc3[nH]nc(-c4cnn(C5CCN(C6COC6)CC5)c4)c3c2)c1Cl [Example 94, 5-[(1R)-1-(3,5-dichloro-2-methyl-4-pyridyl)ethoxy]-3-[1-[1-(oxetan-3-yl)-4-piperidyl]pyrazol-4-yl]-1H-indazole] | 100 to 300 nM | 11 | – | 1 to 20 nM | 1 to 20 nM | 20 to 100 nM | 1 to 20 nM | 1 to 20 nM | 20 to 100 nM | 100 to 300 nM | 15 nM |
| Cc1ncc(Cl)c([C@@H](C)Oc2ccc3[nH]nc(-c4cnn(C5CCN(C6CCC6)CC5)c4)c3c2)c1Cl [Example 95, 3-[1-(1-cyclobutyl-4-piperidyl)pyrazol-4-yl]-5-[(1R)-1-(3,5-dichloro-2-methyl-4-pyridyl)ethoxy]-1H-indazole] | 100 to 300 nM | 14 | 20 to 100 nM | 20 to 100 nM | 1 to 20 nM | 20 to 100 nM | 1 to 20 nM | 1 to 20 nM | 1 to 20 nM | > 300 nM | – |
| C[C@@H](Oc1ccc2[nH]nc(-c3ccc(N4CC5(CCN5C)C4)nc3)c2c1)c1c(Cl)cncc1Cl [Example 96, 5-[(1R)-1-(3,5-dichloro-4-pyridyl)ethoxy]-3-[6-(1-methyl-1,6-diazaspiro[3.3]heptan-6-yl)-3-pyridyl]-1H-indazole] | 20 to 100 nM | 13 | 1 to 20 nM | 1 to 20 nM | 1 to 20 nM | 1 to 20 nM | 1 to 20 nM | 1 to 20 nM | 1 to 20 nM | 20 to 100 nM | – |
